By melting point is commonly meant the temperature, or range, at which the solid turns liquid. Take `CN1CCC(O)(Cc2ccccc2Cl)CC1`: the melting point fell in the range of 73 to 75 °C.

Regarding `O=C(O)c1cc2c(F)cccc2s1`, the melting point lay in the range of 214 to 216 °C.

`NNC(=O)c1ccc(O)c(Cl)c1`: the melting point was 280 to 282 °C.

`O=C(CCl)Nc1ccc(SC(F)F)cc1` displayed a melting point of 55 to 57 °C.

For the molecule `O=C(O)c1cccc(N2CC=CC2)c1`, the melting point lay in the range of 193 to 195 °C.

`COC(=O)C(=O)CN1C(=O)c2ccccc2C1=O` came in with a melting point of 134 to 136 °C.

`C=CCN1C(=O)C(=O)c2ccccc21` returned a melting point of 108 to 110 °C.

Molecule `NNC(=O)CN1C(=O)COc2ccccc21` returned a melting point of 152 to 154 °C.

In turn, `CCCCOc1ccc2cc(C(=O)O)[nH]c2c1` yielded a melting point of 173 to 175 °C.

Molecule `COC(=O)c1sc(N2CCOCC2)nc1N` showed a melting point of 156 to 158 °C.

In the case of `Cc1nnc(S)n1C1CC1`, the melting point lay in the range of 132 to 134 °C.

In turn, `N#Cc1cccc(-c2cscn2)c1` gave a melting point of 111 to 113 °C.

With `Cc1ccc(F)c(C(=O)O)c1N`, the melting point is 139 to 141 °C.

`Nc1ccc(O)cc1C(=O)NCc1ccccc1` showed a melting point of 154 to 156 °C.

The molecule `Cc1ccc2nc3ccccc3c(Cl)c2c1` gave a melting point of 121 to 123 °C.

The molecule `Cc1ccc(OCCCC(=O)Nc2ccc(C#N)cc2)cc1` had a melting point of 126 to 128 °C.

Consider `O=C(O)C=Cc1cn(-c2ccccc2)nc1-c1ccccc1`, for which the melting point was in the range of 207 to 209 °C.

For `N#Cc1ccc(C(=O)NCC(=O)O)cc1`, the melting point lay in the range of 193 to 195 °C.

Molecule `CCOC(=O)/C(C#N)=C/Nc1ccc(F)cc1F` displayed a melting point of 142 to 144 °C.

The molecule `CCc1c(Cl)nc(-c2ccccc2)nc1Cl` came in with a melting point of 73 to 75 °C.

With `NC(=O)c1sc2nc(C3CC3)cc(-c3ccccc3)c2c1N`, the melting point lay within 185 to 187 °C.

For `CC(C)(C)c1ncccc1O`, the melting point fell in the range of 159 to 161 °C.

On to `OCc1cccc2cn[nH]c12`, for which the melting point is 201 to 203 °C.

As to `CC(C)c1nc(Cl)nc(N(C)C)n1`, the melting point was 57 to 59 °C.

In turn, `Cc1cc(N)n(C2CCN(C)CC2)n1` had a melting point of 89 to 91 °C.

The molecule `Cc1ccc(-c2csc(N)n2)s1` yielded a melting point of 129 to 131 °C.

As to `Cc1ccc(S(=O)(=O)N(C)c2ccc(OCC(=O)O)cc2)cc1`, the melting point was 152 to 154 °C.

With `O=C1NCCNC1c1cccc(Br)c1` (stereo unspecified), the melting point was in the range of 117 to 119 °C.

Molecule `O=C(O)c1ccc(-c2ncon2)cc1` displayed a melting point of 214 to 216 °C.

For `CCc1ccccc1-n1c(S)nc2ccccc2c1=O`, the melting point was 304 to 306 °C.

For `CCOC(=O)Cc1nc(-c2ccc(OC)c(OC)c2)no1`, the melting point is 75 to 77 °C.

In turn, `O=C(O)c1ccc(Cl)c(S(=O)(=O)Cl)c1` yielded a melting point of 142 to 145 °C.

`COc1ccccc1CC(N)=O` came in with a melting point of 127 to 129 °C.

In turn, `O=C(O)C(Oc1ccc(Cl)c(Cl)c1)c1ccccc1` (stereo unspecified) showed a melting point of 59 to 61 °C.

As for `Cc1csc(-c2cnc(C)[nH]c2=O)n1`, the melting point fell in the range of 302 to 304 °C.

As to `Cc1ncc(C(=O)O)c(C)n1`, the melting point was 151 to 153 °C.

On to `Cc1[nH]c2ccccc2c1-c1csc(N)n1`, for which the melting point lay in the range of 168 to 170 °C.

As for `O=C(O)C1(c2c(Cl)cccc2Cl)CC1`, the melting point was in the range of 216 to 218 °C.

In turn, `CCCCN1Cc2ccc(N)cc2C1` showed a melting point of 62 to 64 °C.

Take `Cc1cccc(CNc2ccc3[nH]c(=O)[nH]c3c2)c1`: the melting point was 216 to 218 °C.

Consider `Cc1onc(-c2ccncc2)c1C(=O)O`, for which the melting point lay in the range of 249 to 251 °C.

Consider `NNc1nc(-c2ccncc2)no1`, for which the melting point fell in the range of 189 to 191 °C.

The molecule `CC(C)(C)OC(=O)Nc1cccc(Cl)n1` showed a melting point of 74 to 76 °C.

Molecule `CCCCCn1nc(C(=O)O)c2ccccc2c1=O` displayed a melting point of 144 to 146 °C.

With `NCc1ccccc1-c1ccc(CN2CCCC2=O)cc1`, the melting point lay in the range of 82 to 84 °C.

`NNC(=S)NC1CC1`: the melting point was 100 to 102 °C.

Regarding `CC(C)Cn1cc(C(=O)O)c2ccccc21`, the melting point was in the range of 151 to 153 °C.

Consider `NC1CCCc2nc(-c3ccc(F)cc3)sc21` (stereo unspecified), for which the melting point lay within 54 to 56 °C.

For the molecule `CC(C)NC(=O)CCCl`, the melting point lay in the range of 67 to 69 °C.

For `Cc1cc(C(N)C(=O)O)cc(C)c1O` (stereo unspecified), the melting point was in the range of 203 to 205 °C.

The molecule `CC(=O)Nc1cccc(N2C(=O)C=CC2=O)c1` registered a melting point of 185 to 187 °C.

As to `CC(=O)Nc1ccc(N)c(C(F)(F)F)c1`, the melting point is 118 to 120 °C.

`NNc1c(Cl)cc(F)cc1Cl` yielded a melting point of 109 to 111 °C.

For `CCOC(=O)c1cnn(-c2nc3ccccc3s2)c1N`, the melting point was 137 to 139 °C.

`NS(=O)(=O)Cc1ccccc1[N+](=O)[O-]` gave a melting point of 131 to 133 °C.

As to `CS(=O)(=O)Cc1ccc(N)cc1`, the melting point fell in the range of 159 to 161 °C.

`O=C(CCl)c1ccc[nH]1` had a melting point of 114 to 116 °C.

In turn, `Nc1cc(-c2ccccc2Cl)no1` gave a melting point of 69 to 71 °C.

Molecule `COc1cccc(C(C[N+](=O)[O-])c2c[nH]c3ccccc23)c1` (stereo unspecified) showed a melting point of 93 to 95 °C.

As to `NS(=O)(=O)c1cnn(-c2cccc(C(F)(F)F)c2)c1`, the melting point was in the range of 162 to 164 °C.

Turning to `O=C(O)c1cc(Cl)cc([N+](=O)[O-])c1`, the melting point was in the range of 146 to 148 °C.

Turning to `Nc1ncn(CC(=O)NCc2ccccc2)n1`, the melting point lay within 181 to 183 °C.

With `Nc1nc2ccc(S(=O)(=O)N3CCCC3)cc2s1`, the melting point lay in the range of 225 to 227 °C.

In turn, `CC(O)c1ccc(I)cc1` (stereo unspecified) yielded a melting point of 43 to 45 °C.

Molecule `O=C(O)c1cccc(S(=O)(=O)Nc2ccccc2Cl)c1` registered a melting point of 186 to 188 °C.

As to `CSC(=C(C#N)C#N)N1CCOCC1`, the melting point was 143 to 145 °C.

`NC(=O)c1cccc2cccnc12` returned a melting point of 168 to 170 °C.

The molecule `O=C(O)c1ccc(Cn2nnc3ccccc32)cc1` displayed a melting point of 264 to 266 °C.

`Cn1cnc2cc(C(=O)O)ccc21`: the melting point is 313 to 315 °C.

`Nc1cc(F)c(Br)cc1[N+](=O)[O-]`: the melting point fell in the range of 166 to 168 °C.

Consider `Cc1ccc(S(=O)(=O)NC2CC2)cc1C(=O)O`, for which the melting point was 252 to 257 °C.

In the case of `CC(C)NC(=O)CN(C)CC(N)=S`, the melting point lay in the range of 140 to 142 °C.

In turn, `NCc1ccc(-n2cnc3ccccc32)nc1` showed a melting point of 97 to 99 °C.

Molecule `ClCc1ccnc(-c2ccc(Br)cc2)n1` displayed a melting point of 126 to 128 °C.

Molecule `NC(=NO)c1ccc(COc2ccccc2)cc1` showed a melting point of 143 to 145 °C.

The molecule `CCc1cc(Cl)n2nc(C(=O)OC)nc2n1` returned a melting point of 179 to 181 °C.

`CCCNC(=O)NC(=O)CCl` came in with a melting point of 119 to 121 °C.

`Cc1nc2nc(N)nn2c(C)c1CC(=O)O` registered a melting point of 260 to 264 °C.

In the case of `Cc1ccc(Br)c2cccnc12`, the melting point was in the range of 34 to 36 °C.

For the molecule `Sc1nc2cc(Cl)ccc2o1`, the melting point lay within 277 to 279 °C.

Consider `COc1ccc(CC(=O)O)cc1S(=O)(=O)Cl`, for which the melting point fell in the range of 166 to 168 °C.

Molecule `OCc1noc(-c2cccc(Cl)c2)n1` returned a melting point of 103 to 105 °C.

Take `CC(C)C(=O)Nc1ccc(N)cc1`: the melting point is 74 to 76 °C.

The molecule `O=C(CCc1ccccc1)c1ccccc1` registered a melting point of 69 to 71 °C.

For the molecule `Cc1c(C(=O)O)cc(Cl)cc1S(=O)(=O)Cl`, the melting point was 109 to 111 °C.

`CN1N=C(C(N)=O)CCC1=O`: the melting point is 169 to 171 °C.

The values above are taken from a melting point compilation (Tetko et al.).
